Experimental data taken from patent publication US20260365625A1, “DEUTERIUM ENRICHED PHENYL DERIVATIVES FOR TREATING MITOCHONDRIARELATED DISORDERS OR CONDITIONS” (Rivus Pharmaceuticals, Inc., priority 2022, published 2026).

Tested on: HepG2 (hepatocellular carcinoma cells)
Assay: Oxygen consumption rate (OCR) in HepG2 cells, Seahorse XFe96 Extracellular Flux Analyzer
Assay type: cell-based
Method: HepG2 (hepatocellular carcinoma cells) were utilized in a Seahorse XFe96 Extracellular Flux Analyzer to analyze Compound (A)'s and the phenolic metabolite of the compound of formula (I)'s (“DNP”) effect on oxygen consumption rate (OCR).
30,000 HepG2 cells in MEM Alpha growth medium+10% Fetal Bovine Serum were seeded in XFe 96-well cell culture plate and incubated overnight at 37 °C with 5% CO2. The following day, cells were transferred to assay media (DMEM basal assay medium containing 10 mM Glucose 2 mM Glutamine, 1 mM Sodium Pyruvate, adjusted to pH7.4 with IN NaOH) and OCR was measured in a Seahorse XFe96 Extracellular Flux Analyzer according to the manufacturer's instructions. The effect of novel compounds on OCR was assayed in quadruplicates, at three different concentrations and in three separate experiments. The concentration that reaches half their maximum effect (EC50) and maximum OCR (Emax) increase as compared to DNP (100%) over untreated cells (0%) was calculated as an average between the three independent experiments. For data analysis GraphPad Prism was utilized.

In the case of `O=[N+]([O-])c1ccc(O)c([N+](=O)[O-])c1` [DNP], the “Emax (maximum OCR increase as compared to DNP (100%) over untreated cells (0%))” value (OCR values normalized to 100 μM DNP (Emax=100%), average of three independent experiments) is reported as 100%, the “effect on oxygen consumption rate (OCR)” value (result in words) is reported as “increased oxygen consumption rate (OCR)” and the EC50 (three concentrations in quadruplicates, average of three independent experiments, read-out: EC50 (concentration that reaches half their maximum effect on OCR)) is reported as 22 µM.
